Measurements from patent publication US8697385B1, “Protein controlling synthesis of collagen and associated methods” (Florida State University Research Foundation, Inc., priority 2009, dated 2014).

Test system: Δ5′SL MEFs
Experiment: Western blot analysis of collagen α1(I) polypeptide, Δ5′SL MEFs
Assay type: cell-based, mouse
Settings: ML-7 treatment
Experimental: ML-7, blebbistatin, cytochalasin B, puromycin, and cycloheximide were purchased from Sigma. ML-7 was used at 40 μM, blebbistatin was used at 100 μM, and cytochalasin B was used at 20 μM. Cells were incubated with the drugs for 16 h before analysis. Puromycin (200 μg/ml) and cycloheximide (100 μg/ml) were added to the cells for 2 h. Human lung fibroblasts have been described previously.16 Scleroderma fibroblasts were purchased from the European Collection of Cell Cultures (cell line BM0070) and derived from the skin of a scleroderma patient. MEFs were derived from knock-in mice in which the 5′SL of the collagen α1(I) gene has been mutated (Parsons et al., submitted). Several independent cell isolates were used throughout the study. All cells were cultured in Dulbecco's modified Eagle's medium supplemented with 10% fetal bovine serum for up to 10 passages. […] [^32P]dCTP was included in the PCR step to label the products, which were resolved on sequencing gels, as described previously.^8,31,49,50 When RNA from polysomal fractions was analyzed, an equal aliquot of each fraction was used. […]
Protein concentration was estimated by the Bradford assay, with bovine serum albumin as standard.^51 Western blot analyses of cellular proteins were performed using 50 μg of protein. […] The medium was collected, and an aliquot was analyzed directly by Western blot analysis. […]

In the case of `O=S(=O)(c1cccc2c(I)cccc12)N1CCCNCC1` [ML-7], the “secretion of α1(I) polypeptide into the medium” value is reported as “did not affect”.
